In paper PMC5218480 (PLoS ONE, 2017):

Test system: MV-4-11 cells
Test: Gene expression microarray analysis (Affymetrix PrimeView) and GSEA
Format: cell-based, human
Design: RFU PODN (11730768_x_at) / Fold change /veh PODN (11730768_x_at) / RFU LINC00158 (11744669_a_at) / Fold change /veh LINC00158 (11744669_a_at) / RFU DUSP10 (11751237_a_at) / Fold change /veh DUSP10 (11751237_a_at) / RFU ID3 (11757404_x_at) / Fold change /veh ID3 (11757404_x_at) / RFU PLEKHG5 (11737974_s_at) / Fold change /veh PLEKHG5 (11737974_s_at) / RFU LRRC4B (11730491_at) / Fold change /veh LRRC4B (11730491_at) / RFU GIMAP4 (11747438_a_at) / Fold change /veh GIMAP4 (11747438_a_at) / RFU KRT8 (11758183_x_at) / Fold change /veh KRT8 (11758183_x_at) / RFU CNN1 (11734310_a_at) / Fold change /veh CNN1 (11734310_a_at) / RFU VPS37D (11726825_at) / Fold change /veh VPS37D (11726825_at) / RFU C10orf10 (11716522_x_at) / Fold change /veh C10orf10 (11716522_x_at) / RFU KIR2DL2 /// KIR2DL4 /// KIR2DL5A /// KIR2DL5B /// KIR2DS1 /// KIR2DS2 /// KIR2DS3 /// KIR2DS4 /// KIR3DL3 /// KIR3DL3 /// KIR3DS1 (11738374_at) / Fold change /veh KIR2DL2 /// KIR2DL4 /// KIR2DL5A /// KIR2DL5B /// KIR2DS1 /// KIR2DS2 /// KIR2DS3 /// KIR2DS4 /// KIR3DL3 /// KIR3DL3 /// KIR3DS1 (11738374_at) / RFU C1QL1 (11718748_at) / Fold change /veh C1QL1 (11718748_at) / RFU TMPRSS4 (11747572_a_at) / Fold change /veh TMPRSS4 (11747572_a_at) / RFU HAMP (11756126_x_at) / Fold change /veh HAMP (11756126_x_at) / RFU RNFT2 (11725882_a_at) / Fold change /veh RNFT2 (11725882_a_at) / RFU NR4A2 (11747474_a_at) / Fold change /veh NR4A2 (11747474_a_at) / RFU ABCC12 (11746883_a_at) / Fold change /veh ABCC12 (11746883_a_at) / RFU TMEM136 (11760407_x_at) / Fold change /veh TMEM136 (11760407_x_at) / RFU CLDN22 /// WWC2 (11732394_at) / Fold change /veh CLDN22 /// WWC2 (11732394_at) / RFU HLA-DPB1 (11760878_x_at) / Fold change /veh HLA-DPB1 (11760878_x_at) / RFU SPINT1 (11716480_a_at) / Fold change /veh SPINT1 (11716480_a_at) / RFU GAP43 (11754022_s_at) / Fold change /veh GAP43 (11754022_s_at) / RFU A4GNT (11735810_at) / Fold change /veh A4GNT (11735810_at) / RFU PRB3 (11715151_x_at) / Fold change /veh PRB3 (11715151_x_at) / RFU TUBB4B (11761932_at) / Fold change /veh TUBB4B (11761932_at) / RFU CAPN14 (11732068_a_at) / Fold change /veh CAPN14 (11732068_a_at) / RFU TMCC2 (11721928_a_at) / Fold change /veh TMCC2 (11721928_a_at) / RFU IRGQ (11745062_a_at) / Fold change /veh IRGQ (11745062_a_at) / RFU FAM174B (11720279_a_at) / Fold change /veh FAM174B (11720279_a_at) / RFU TMPRSS4 (11748680_a_at) / Fold change /veh TMPRSS4 (11748680_a_at) / RFU FAM212B (11763350_a_at) / Fold change /veh FAM212B (11763350_a_at) / RFU PLEKHG5 (11743358_a_at) / Fold change /veh PLEKHG5 (11743358_a_at) / RFU ZSCAN30 (11745921_a_at) / Fold change /veh ZSCAN30 (11745921_a_at) / RFU CMKLR1 (11741424_a_at) / Fold change /veh CMKLR1 (11741424_a_at) / RFU LOC101060620 /// MAPK8IP1 (11723275_at) / Fold change /veh LOC101060620 /// MAPK8IP1 (11723275_at) / RFU SPTSSB (11747773_x_at) / Fold change /veh SPTSSB (11747773_x_at) / RFU PRSS12 (11739890_at) / Fold change /veh PRSS12 (11739890_at) / RFU BIN1 (11741810_x_at) / Fold change /veh BIN1 (11741810_x_at) / RFU WNT11 (11732464_a_at) / Fold change /veh WNT11 (11732464_a_at) / RFU C10orf10 (11716521_a_at) / Fold change /veh C10orf10 (11716521_a_at) / RFU C5orf56 (11738089_at) / Fold change /veh C5orf56 (11738089_at) / RFU CYB561 (11721691_x_at) / Fold change /veh CYB561 (11721691_x_at) / RFU ANKRD19P (11752326_a_at) / Fold change /veh ANKRD19P (11752326_a_at) / RFU OR2T12 /// OR2T33 /// OR2T8 (11738714_s_at) / Fold change /veh OR2T12 /// OR2T33 /// OR2T8 (11738714_s_at) / RFU VCAN (11748164_a_at) / Fold change /veh VCAN (11748164_a_at) / RFU JSRP1 (11732532_at) / Fold change /veh JSRP1 (11732532_at) / RFU KRTAP10-11 (11738290_x_at) / Fold change /veh KRTAP10-11 (11738290_x_at) / RFU MYO3A (11730013_a_at) / Fold change /veh MYO3A (11730013_a_at) / RFU EBF3 (11725865_a_at) / Fold change /veh EBF3 (11725865_a_at) / RFU CAMK2N1 (11719241_x_at) / Fold change /veh CAMK2N1 (11719241_x_at) / RFU C5orf56 (11738088_a_at) / Fold change /veh C5orf56 (11738088_a_at) / RFU OLFML3 (11715873_a_at) / Fold change /veh OLFML3 (11715873_a_at) / RFU LOC100653217 /// NTM (11731650_a_at) / Fold change /veh LOC100653217 /// NTM (11731650_a_at) / RFU MAPK11 (11762145_a_at) / Fold change /veh MAPK11 (11762145_a_at) / RFU FIZ1 (11724087_x_at) / Fold change /veh FIZ1 (11724087_x_at) / RFU OASL (11726364_x_at) / Fold change /veh OASL (11726364_x_at) / RFU SOX15 (11748057_x_at) / Fold change /veh SOX15 (11748057_x_at) / RFU CD79A (11719716_a_at) / Fold change /veh CD79A (11719716_a_at) / RFU HIST1H1D (11736915_at) / Fold change /veh HIST1H1D (11736915_at) / RFU CASKIN2 (11723855_a_at) / Fold change /veh CASKIN2 (11723855_a_at) / RFU LOC730098 (11760151_x_at) / Fold change /veh LOC730098 (11760151_x_at) / RFU OR4N2 (11742367_at) / Fold change /veh OR4N2 (11742367_at) / RFU PRRT2 (11749266_a_at) / Fold change /veh PRRT2 (11749266_a_at) / RFU SNX32 (11753110_a_at) / Fold change /veh SNX32 (11753110_a_at) / RFU CDHR5 (11726645_a_at) / Fold change /veh CDHR5 (11726645_a_at) / RFU RCAN1 (11760418_a_at) / Fold change /veh RCAN1 (11760418_a_at) / RFU FAM167A (11723789_a_at) / Fold change /veh FAM167A (11723789_a_at) / RFU FAM26E (11764081_at) / Fold change /veh FAM26E (11764081_at) / RFU ISYNA1 (11749810_s_at) / Fold change /veh ISYNA1 (11749810_s_at) / RFU ACY1 (11761880_at) / Fold change /veh ACY1 (11761880_at) / RFU 11764098_at / Fold change /veh 11764098_at / RFU SAMD14 (11745864_x_at) / Fold change /veh SAMD14 (11745864_x_at) / RFU NPB (11741838_a_at) / Fold change /veh NPB (11741838_a_at) / RFU TMPRSS6 (11731388_a_at) / Fold change /veh TMPRSS6 (11731388_a_at) / RFU KRTAP10-2 (11738614_at) / Fold change /veh KRTAP10-2 (11738614_at) / RFU ARHGAP8 /// PRR5-ARHGAP8 (11727945_x_at) / Fold change /veh ARHGAP8 /// PRR5-ARHGAP8 (11727945_x_at) / RFU KRTAP5-7 /// NADSYN1 (11734609_at) / Fold change /veh KRTAP5-7 /// NADSYN1 (11734609_at) / RFU RASL12 (11751679_a_at) / Fold change /veh RASL12 (11751679_a_at) / RFU CDKN2B (11736163_a_at) / Fold change /veh CDKN2B (11736163_a_at) / RFU PRF1 (11729649_at) / Fold change /veh PRF1 (11729649_at) / RFU, ZNF638 /// ZNF638-IT1 / Fold change vs veh, ZNF638 /// ZNF638-IT1 / RFU, PANK3 / Fold change vs veh, PANK3 / RFU, SH3YL1 / Fold change vs veh, SH3YL1 / RFU, ZEB2 / Fold change vs veh, ZEB2 / RFU, NRIP1 / Fold change vs veh, NRIP1 / RFU, PTTG1IP / Fold change vs veh, PTTG1IP / RFU, CAPN2 / Fold change vs veh, CAPN2 / RFU, MED14 / Fold change vs veh, MED14 / RFU, SNORA58 / Fold change vs veh, SNORA58 / RFU, C1orf63 / Fold change vs veh, C1orf63 / RFU, LRRFIP1 / Fold change vs veh, LRRFIP1 / RFU, NDUFAF7 / Fold change vs veh, NDUFAF7 / RFU, SLC12A2 / Fold change vs veh, SLC12A2 / RFU, IBTK / Fold change vs veh, IBTK / RFU, ESF1 / Fold change vs veh, ESF1 / Fold change vs veh, TMEM50B / RFU, TAOK1 / Fold change vs veh, TAOK1 / RFU, ACBD3 / Fold change vs veh, ACBD3 / RFU, TMA16 / Fold change vs veh, TMA16 / RFU, RWDD3 / Fold change vs veh, RWDD3 / RFU, BCAT1 / Fold change vs veh, BCAT1 / RFU, EDEM3 / Fold change vs veh, EDEM3 / RFU, TMEM33 / Fold change vs veh, TMEM33 / RFU, WDR75 / Fold change vs veh, WDR75 / RFU, AHCTF1 / Fold change vs veh, AHCTF1 / RFU, TFRC / Fold change vs veh, TFRC / RFU, ZDHHC17 / Fold change vs veh, ZDHHC17 / RFU, NOM1 / Fold change vs veh, NOM1 / RFU, ARL8B / Fold change vs veh, ARL8B / RFU, ZBTB11 / Fold change vs veh, ZBTB11 / RFU, TAMM41 / Fold change vs veh, TAMM41 / RFU, KIAA1704 /// LOC100996395 / Fold change vs veh, KIAA1704 /// LOC100996395 / RFU, ING1 / Fold change vs veh, ING1 / RFU, TRMT61B / Fold change vs veh, TRMT61B / RFU, FUBP3 / Fold change vs veh, FUBP3 / RFU, TP53 / Fold change vs veh, TP53 / RFU, TNKS2 / Fold change vs veh, TNKS2 / RFU, ZFP14 / Fold change vs veh, ZFP14 / RFU, ACTR2 / Fold change vs veh, ACTR2 / RFU, PPP3R1 / Fold change vs veh, PPP3R1 / RFU, PIK3R1 / Fold change vs veh, PIK3R1 / RFU, HNRNPA1 / Fold change vs veh, HNRNPA1 / RFU, RNF170 / Fold change vs veh, RNF170 / RFU, ZNF28 / Fold change vs veh, ZNF28 / RFU, RNGTT / Fold change vs veh, RNGTT / RFU, OGT / Fold change vs veh, OGT / RFU, BRD1 / Fold change vs veh, BRD1 / RFU, MARS / Fold change vs veh, MARS / RFU, ZNF655 / Fold change vs veh, ZNF655 / RFU, FAHD1 / Fold change vs veh, FAHD1 / RFU, BDP1 / Fold change vs veh, BDP1 / RFU, LRRCC1 / Fold change vs veh, LRRCC1 / RFU, ARID1A / Fold change vs veh, ARID1A / RFU, ZNF146 / Fold change vs veh, ZNF146 / RFU, ZNF330 / Fold change vs veh, ZNF330 / RFU, GPN3 / Fold change vs veh, GPN3 / RFU, C9orf123 / Fold change vs veh, C9orf123 / RFU, N4BP2L2 / Fold change vs veh, N4BP2L2 / RFU, ARFIP1 / Fold change vs veh, ARFIP1 / RFU, FAM179B / Fold change vs veh, FAM179B / RFU, BCL10 / Fold change vs veh, BCL10 / RFU, UHRF1BP1L / Fold change vs veh, UHRF1BP1L / RFU, BET1 / Fold change vs veh, BET1 / RFU, CNOT2 / Fold change vs veh, CNOT2 / RFU, ZNF268 / Fold change vs veh, ZNF268 / Fold change vs veh, ZNF507 / RFU, DGCR2 / Fold change vs veh, DGCR2 / RFU, WDSUB1 / Fold change vs veh, WDSUB1 / Fold change vs veh, HSP90B1 /// MIR3652 / RFU, ADSS / Fold change vs veh, ADSS / RFU, GK / Fold change vs veh, GK / RFU, ZNF148 / Fold change vs veh, ZNF148 / RFU, TAF9 / Fold change vs veh, TAF9 / RFU, SLC1A5 / Fold change vs veh, SLC1A5 / RFU, SLMO2 / Fold change vs veh, SLMO2 / RFU, ABCC4 / Fold change vs veh, ABCC4 / RFU, LOC101060439 /// RAP1B / Fold change vs veh, LOC101060439 /// RAP1B / RFU, RFX7 / Fold change vs veh, RFX7 / RFU, GTPBP10 / Fold change vs veh, GTPBP10 / RFU, CNEP1R1 / Fold change vs veh, CNEP1R1 / RFU, BIVM-ERCC5 /// ERCC5 / Fold change vs veh, BIVM-ERCC5 /// ERCC5 / RFU, ILF3 / Fold change vs veh, ILF3 / RFU 11762660_at / Fold change /veh 11762660_at / RFU VCAN (11757783_s_at) / Fold change /veh VCAN (11757783_s_at) / RFU DDX43 (11728927_at) / Fold change /veh DDX43 (11728927_at) / RFU KRT8 (11758188_x_at) / Fold change /veh KRT8 (11758188_x_at) / RFU NKD1 (11759106_at) / Fold change /veh NKD1 (11759106_at) / RFU SRD5A1 (11742802_a_at) / Fold change /veh SRD5A1 (11742802_a_at) / RFU TPSAB1 /// TPSB2 (11721975_s_at) / Fold change /veh TPSAB1 /// TPSB2 (11721975_s_at) / RFU GSTM3 (11746129_a_at) / Fold change /veh GSTM3 (11746129_a_at) / RFU IL23R (11737362_x_at) / Fold change /veh IL23R (11737362_x_at) / RFU TMEM51 (11727254_a_at) / Fold change /veh TMEM51 (11727254_a_at) / RFU PIWIL2 (11732686_x_at) / Fold change /veh PIWIL2 (11732686_x_at) / RFU ORM1 (11744905_x_at) / Fold change /veh ORM1 (11744905_x_at) / RFU CCDC152 (11743942_at) / Fold change /veh CCDC152 (11743942_at) / RFU ECM1 (11717891_a_at) / Fold change /veh ECM1 (11717891_a_at) / RFU IL23R (11748794_a_at) / Fold change /veh IL23R (11748794_a_at) / RFU TNFAIP8L3 (11732012_x_at) / Fold change /veh TNFAIP8L3 (11732012_x_at) / RFU MBOAT4 (11741988_at) / Fold change /veh MBOAT4 (11741988_at) / RFU 11764193_at / Fold change /veh 11764193_at / RFU TMEM53 (11763286_at) / Fold change /veh TMEM53 (11763286_at) / RFU MAGEB2 (11727129_at) / Fold change /veh MAGEB2 (11727129_at) / RFU TMEM200A (11744735_a_at) / Fold change /veh TMEM200A (11744735_a_at) / RFU CCDC152 (11751479_a_at) / Fold change /veh CCDC152 (11751479_a_at) / RFU FAM211A (11726209_a_at) / Fold change /veh FAM211A (11726209_a_at) / RFU RGS16 (11746705_a_at) / Fold change /veh RGS16 (11746705_a_at) / RFU VCAN (11755009_s_at) / Fold change /veh VCAN (11755009_s_at) / RFU RHOB (11743442_s_at) / Fold change /veh RHOB (11743442_s_at) / RFU RGS16 (11720943_a_at) / Fold change /veh RGS16 (11720943_a_at) / RFU RGS16 (11720944_at) / Fold change /veh RGS16 (11720944_at) / RFU, VPS4B / Fold change vs veh, VPS4B / RFU, CREB1 / Fold change vs veh, CREB1 / RFU, DNAJC13 / Fold change vs veh, DNAJC13 / RFU, GNAQ / Fold change vs veh, GNAQ / RFU, CDK5R1 / Fold change vs veh, CDK5R1 / RFU, ZRANB3 / Fold change vs veh, ZRANB3 / RFU, CUL4A / Fold change vs veh, CUL4A / RFU, CCNY / Fold change vs veh, CCNY / RFU, UFL1 / Fold change vs veh, UFL1 / RFU, COG3 / Fold change vs veh, COG3 / RFU, DIAPH2 / Fold change vs veh, DIAPH2 / RFU, SKA2 / Fold change vs veh, SKA2 / RFU, AFF3 / Fold change vs veh, AFF3 / RFU, LMF1 / Fold change vs veh, LMF1 / RFU, IPO11 / Fold change vs veh, IPO11 / RFU, DFFB / Fold change vs veh, DFFB / RFU, FOXP1 / Fold change vs veh, FOXP1 / RFU, CARD8 / Fold change vs veh, CARD8 / RFU, STRN3 / Fold change vs veh, STRN3 / RFU, ADK / Fold change vs veh, ADK / RFU, RASSF2 / Fold change vs veh, RASSF2 / RFU, WIPF1 / Fold change vs veh, WIPF1 / RFU, LARP1B / Fold change vs veh, LARP1B / RFU, RASA1 / Fold change vs veh, RASA1 / RFU, RB1 / Fold change vs veh, RB1 / RFU, PPFIA1 / Fold change vs veh, PPFIA1 / RFU, MAT2A / Fold change vs veh, MAT2A / RFU, CCT5 / Fold change vs veh, CCT5 / RFU, WDR92 / Fold change vs veh, WDR92 / RFU, CUX1 / Fold change vs veh, CUX1 / RFU, TTC7A / Fold change vs veh, TTC7A / RFU, TMEM135 / Fold change vs veh, TMEM135 / RFU, DEPTOR / Fold change vs veh, DEPTOR / RFU, CPM / Fold change vs veh, CPM / RFU, DNAJB6 / Fold change vs veh, DNAJB6 / RFU, CACNA2D3 / Fold change vs veh, CACNA2D3 / RFU, DTX4 / Fold change vs veh, DTX4 / RFU, TFCP2 / Fold change vs veh, TFCP2 / RFU, GMCL1 /// GMCL1P1 / Fold change vs veh, GMCL1 /// GMCL1P1 / RFU, AEBP2 / Fold change vs veh, AEBP2 / RFU, SNHG1 /// SNORD22 /// SNORD25 /// SNORD26 /// SNORD27 /// SNORD28 /// SNORD29 /// SNORD31 / Fold change vs veh, SNHG1 /// SNORD22 /// SNORD25 /// SNORD26 /// SNORD27 /// SNORD28 /// SNORD29 /// SNORD31 / Fold change (Aza/veh), C12orf56 (ProbeSet 11735607_a_at) / Fold change (ACY-1035/veh), C12orf56 (ProbeSet 11735607_a_at) / Fold change (Aza/veh), FGFR1OP (ProbeSet 11751329_s_at) / Fold change (ACY-1035/veh), FGFR1OP (ProbeSet 11751329_s_at) / Fold change (Aza/veh), VPS36 (ProbeSet 11739960_a_at) / Fold change (ACY-1035/veh), VPS36 (ProbeSet 11739960_a_at) / RFU SYPL1 (11715823_x_at) / Fold change /veh SYPL1 (11715823_x_at) / RFU IGFBP7 (11715501_s_at) / Fold change /veh IGFBP7 (11715501_s_at) / RFU REEP3 (11722064_at) / Fold change /veh REEP3 (11722064_at) / RFU IGLL1 (11728026_x_at) / Fold change /veh IGLL1 (11728026_x_at): dose or concentration left out as unconfirmed
Details: ProbeSet 11740528_a_at; LIST D

SMILES: Nc1ncn([C@@H]2O[C@H](CO)[C@@H](O)[C@H]2O)c(=O)n1 [azacitidine]
- Fold change vs veh, AFF3: 0.47
